Assay results as given in ChEMBL document CHEMBL3301451, “MMV Malaria Box gametocyte functional viability assay screening”.

How the values were obtained:
Plasmodium falciparum [1] = assay: MMV: P. falciparum NF54 functionally mature Stage V gametocytes were incubated for 24 hr in the presence of the test compounds. Gamete formation was then triggered by addition of 2uM xantheurenic acid and temperature decrease to ~20C. Male gamete exflagellation was recorded and analysed by automated microscopy after 20 min. All compounds were tested in 4 independent experiments and data presented here is the mean.; type: functional; set-up: concentration or dose not given beside the values
Plasmodium falciparum [2] = assay: MMV: P. falciparum NF54 functionally mature Stage V gametocytes were incubated for 24 hr in the presence of the test compounds. Gamete formation was then triggered by addition of 2uM xantheurenic acid and temperature decrease to ~20C. Male gamete exflagellation was recorded and analysed by automated microscopy after 20 min. All compounds were tested in 4 independent experiments and data presented here is the mean. IC50s determined for selected compounds.; type: functional, organism-based
Plasmodium berghei [3] = assay: MMV: P. berghei-infected blood was withdrawn from mice by cardiac pucture before being immediately added to ookinete culture medium containing test compounds. 26 hr later, GFP-positive ookinetes were identified and counted by automated microscopy. All compounds were tested in 4 independent experiments and data presented here is the mean. IC50s determined for selected compounds.; type: functional, organism-based
Plasmodium falciparum [4] = assay: MMV: P. falciparum NF54 functionally mature Stage V gametocytes were incubated for 24 hr in the presence of the test compounds. Gamete formation was then triggered by addition of 2uM xantheurenic acid and temperature decrease to ~20C. Female gamete formation was recorded 24 hr later by automated microscopy detection of surface labelling of female gametes with a Cy3-conjugated antibody reactive to Pfs25. All compounds were tested in 4 independent experiments and data presented here is the mean.; type: functional; set-up: concentration or dose not given beside the values; conditions: NF54, 24 h
Plasmodium berghei [5] = assay: MMV: P. berghei-infected blood was withdrawn from mice by cardiac pucture before being immediately added to ookinete culture medium containing test compounds. 26 hr later, GFP-positive ookinetes were identified and counted by automated microscopy. All compounds were tested in 4 independent experiments and data presented here is the mean.; type: functional; set-up: concentration or dose not given beside the values
Plasmodium falciparum [6] = assay: MMV: P. falciparum NF54 functionally mature Stage V gametocytes were incubated for 24 hr in the presence of the test compounds. Gamete formation was then triggered by addition of 2uM xantheurenic acid and temperature decrease to ~20C. Female gamete formation was recorded 24 hr later by automated microscopy detection of surface labelling of female gametes with a Cy3-conjugated antibody reactive to Pfs25. All compounds were tested in 4 independent experiments and data presented here is the mean. IC50s determined for selected compounds.; type: functional, organism-based; conditions: NF54, 24 h

Compound: CN(C)CCCNc1c2ccccc2nc2ccccc12
- inhibition (Plasmodium falciparum [1]): 97.5%
- IC50 (Plasmodium falciparum [2]): 130 nM
- IC50 (Plasmodium berghei [3]): 292 nM
- inhibition (Plasmodium falciparum [4]): 24.6%
- inhibition (Plasmodium berghei [5]): 96.2%
- IC50 (Plasmodium falciparum [6]): 1070 nM

Compound: COc1ccc2c(c1)C1(Nc3ccccc3-c3nc4ccccc4n31)C(=O)N2 (stereo unspecified)
- inhibition (Plasmodium falciparum [1]): 48.2%
- IC50 (Plasmodium falciparum [2]): 2900 nM
- inhibition (Plasmodium falciparum [4]): 24%
- inhibition (Plasmodium berghei [5]): 54.64%
- IC50 (Plasmodium falciparum [6]): 6450 nM

Compound: Cc1cc(C)cc(Nc2cc(C)nc3nc(C(F)(F)F)nn23)c1
- inhibition (Plasmodium falciparum [1]): 13.1%
- inhibition (Plasmodium falciparum [4]): -17.3%
- inhibition (Plasmodium berghei [5]): -26.51%

Compound: O=C(NCC(c1ccsc1)N1CCCCCC1)c1ccc(C(F)(F)F)cc1 (stereo unspecified)
- inhibition (Plasmodium falciparum [1]): -14.6%
- inhibition (Plasmodium falciparum [4]): -37.4%
- inhibition (Plasmodium berghei [5]): -31.95%

Compound: COc1ccc(-c2cc3c(SCC(=O)Nc4cc(C(F)(F)F)ccc4Cl)nccn3n2)cc1
- inhibition (Plasmodium falciparum [1]): 23.5%
- inhibition (Plasmodium falciparum [4]): -16.8%
- inhibition (Plasmodium berghei [5]): -25.97%

Compound: CCOC(=O)c1cnc2ccc(CC)cc2c1O
- inhibition (Plasmodium falciparum [1]): 65.8%
- IC50 (Plasmodium falciparum [2]): 570 nM
- IC50 (Plasmodium berghei [3]): 287 nM
- inhibition (Plasmodium falciparum [4]): 9.93%
- inhibition (Plasmodium berghei [5]): 97.88%
- IC50 (Plasmodium falciparum [6]): > 50000 nM

Compound: CCN(CC)CCNc1ccnc2cc(Cl)ccc12
- inhibition (Plasmodium falciparum [1]): -16.3%
- inhibition (Plasmodium falciparum [4]): -29.9%
- inhibition (Plasmodium berghei [5]): -23.67%

Compound: OC1=C2C(=Nc3ccccc3SC2c2ccccc2)c2ccccc21 (stereo unspecified)
- inhibition (Plasmodium falciparum [1]): 58.8%
- IC50 (Plasmodium falciparum [2]): 3240 nM
- IC50 (Plasmodium berghei [3]): 12800 nM
- inhibition (Plasmodium falciparum [4]): -16.4%
- inhibition (Plasmodium berghei [5]): 97.46%
- IC50 (Plasmodium falciparum [6]): > 50000 nM

Compound: CCc1c(C)c(=N)c2ccccc2n1C.I
- inhibition (Plasmodium falciparum [1]): -21.8%
- inhibition (Plasmodium falciparum [4]): -14.1%
- inhibition (Plasmodium berghei [5]): -36.84%

Compound: COc1cccc(NC(=O)[C@H](C(C)C)n2c(=O)[nH]c3ccccc3c2=O)c1
- inhibition (Plasmodium falciparum [1]): 70.9%
- IC50 (Plasmodium falciparum [2]): 241 nM
- IC50 (Plasmodium berghei [3]): 464 nM
- inhibition (Plasmodium falciparum [4]): 36.6%
- inhibition (Plasmodium berghei [5]): 58.53%
- IC50 (Plasmodium falciparum [6]): 384 nM

Compound: CCOC(=O)c1cn(CC)c2cc(N(C)CCc3ccc(OC)c(OC)c3)c(F)cc2c1=O
- inhibition (Plasmodium falciparum [1]): 71.2%
- IC50 (Plasmodium falciparum [2]): 45 nM
- inhibition (Plasmodium falciparum [4]): -15%
- inhibition (Plasmodium berghei [5]): 20.52%
- IC50 (Plasmodium falciparum [6]): > 50000 nM

Compound: CC(C)(C)c1ccc(O)c(CNC2CCCCC2)c1
- inhibition (Plasmodium falciparum [1]): -29.4%
- inhibition (Plasmodium falciparum [4]): 3.67%
- inhibition (Plasmodium berghei [5]): -33.89%

Compound: CCOC(=O)c1c(NC(=O)c2ccccc2)sc2c(O)c(CN(CC)CC)ccc12
- inhibition (Plasmodium falciparum [1]): 51%
- inhibition (Plasmodium falciparum [4]): -19.6%
- inhibition (Plasmodium berghei [5]): -23.17%

Compound: CCOC(=O)C1=C(c2ccccc2)N=c2sc(=Cc3cc(C)n(-c4ccc(F)cc4)c3C)c(=O)n2C1c1cccc(OC)c1OC (stereo unspecified)
- inhibition (Plasmodium falciparum [1]): 17.4%
- inhibition (Plasmodium falciparum [4]): -0.952%
- inhibition (Plasmodium berghei [5]): -41.23%

Compound: CCC1(C)CC(CCNCc2ccccc2O)(c2ccc(C)cc2)CCO1 (stereo unspecified)
- inhibition (Plasmodium falciparum [1]): -6.89%
- inhibition (Plasmodium falciparum [4]): 7.59%
- inhibition (Plasmodium berghei [5]): -38.74%

Compound: CCCN(CCC)CC(O)COc1ccccc1C(=O)Nc1ccccc1 (stereo unspecified)
- inhibition (Plasmodium falciparum [1]): 0.885%
- inhibition (Plasmodium falciparum [4]): -10.5%
- inhibition (Plasmodium berghei [5]): -27.28%

Compound: Fc1ccc2[nH]c3c(NCCCN4CCOCC4)ncnc3c2c1
- inhibition (Plasmodium falciparum [1]): 14.8%
- inhibition (Plasmodium falciparum [4]): -13.7%
- inhibition (Plasmodium berghei [5]): -27.65%

Compound: CC(=O)c1sc(NC(=O)Nc2ccc(C)cc2C)nc1C
- inhibition (Plasmodium falciparum [1]): -39.7%
- inhibition (Plasmodium falciparum [4]): -20.1%
- inhibition (Plasmodium berghei [5]): -22.74%

Compound: COc1ccc(C=C2SC(=N)N(c3ccccc3OC)C2=O)cc1
- inhibition (Plasmodium falciparum [1]): 77.3%
- IC50 (Plasmodium falciparum [2]): 481 nM
- IC50 (Plasmodium berghei [3]): 96.2 nM
- inhibition (Plasmodium falciparum [4]): -7.34%
- inhibition (Plasmodium berghei [5]): 72.74%
- IC50 (Plasmodium falciparum [6]): > 50000 nM

Compound: Oc1ccc2ccccc2c1CNc1nc2ccccc2[nH]1
- inhibition (Plasmodium falciparum [1]): 31.6%
- inhibition (Plasmodium falciparum [4]): -19.1%
- inhibition (Plasmodium berghei [5]): -28.7%

Compound: CCOC(=O)c1c(C)n(-c2ccc(Cl)cc2)c2ccc(OC(=O)C=Cc3ccccc3)cc12
- inhibition (Plasmodium falciparum [1]): 18.8%
- inhibition (Plasmodium falciparum [4]): -9.97%
- inhibition (Plasmodium berghei [5]): -22.23%

Compound: O=C(Nc1ccc(-c2nc3ccccc3[nH]2)cc1)c1ccc(Cl)c(Cl)c1
- inhibition (Plasmodium falciparum [1]): 4.23%
- inhibition (Plasmodium falciparum [4]): -34.9%
- inhibition (Plasmodium berghei [5]): -25.94%

Compound: C=CC12CCN(CC1)C(C(O)c1ccnc3ccc(OC)cc13)C2.Cl (stereo unspecified)
- inhibition (Plasmodium falciparum [1]): -29.1%
- inhibition (Plasmodium falciparum [4]): -31.3%
- inhibition (Plasmodium berghei [5]): -25.15%

Compound: Cc1cccc(Nc2nc(N)c3ccccc3n2)c1.Cl
- inhibition (Plasmodium falciparum [1]): -38.3%
- inhibition (Plasmodium falciparum [4]): -22.2%
- inhibition (Plasmodium berghei [5]): -25.03%

Compound: CCn1c(CN2CCN(Cc3ccccc3)CC2)nc2cc(NC(=O)c3cccs3)ccc21
- inhibition (Plasmodium falciparum [1]): 67.4%
- IC50 (Plasmodium falciparum [2]): 288 nM
- IC50 (Plasmodium berghei [3]): 487 nM
- inhibition (Plasmodium falciparum [4]): -15.4%
- inhibition (Plasmodium berghei [5]): 78.13%
- IC50 (Plasmodium falciparum [6]): > 50000 nM

Compound: COc1ccccc1C(=O)ON=C(N)Cc1cccc2ccccc12
- inhibition (Plasmodium falciparum [1]): 30.9%
- inhibition (Plasmodium falciparum [4]): 14.9%
- inhibition (Plasmodium berghei [5]): -22.37%

Compound: O=C1c2ccccc2C2=Nc3ccccc3SC(c3cccc(F)c3)C12 (stereo unspecified)
- inhibition (Plasmodium falciparum [1]): 70.7%
- IC50 (Plasmodium falciparum [2]): 2140 nM
- IC50 (Plasmodium berghei [3]): 1060 nM
- inhibition (Plasmodium falciparum [4]): 11%
- inhibition (Plasmodium berghei [5]): 71.31%
- IC50 (Plasmodium falciparum [6]): > 50000 nM

Compound: CCOC(=O)c1cn(CC)c2cc(N3CCCCC3)c(F)cc2c1=O
- inhibition (Plasmodium falciparum [1]): 92.4%
- IC50 (Plasmodium falciparum [2]): 365 nM
- IC50 (Plasmodium berghei [3]): 2190 nM
- inhibition (Plasmodium falciparum [4]): -15.2%
- inhibition (Plasmodium berghei [5]): 41.89%
- IC50 (Plasmodium falciparum [6]): > 50000 nM

Compound: CCCc1cc(O)c2c3c(c(=O)oc2c1)CN(C)CC3
- inhibition (Plasmodium falciparum [1]): 2.76%
- inhibition (Plasmodium falciparum [4]): -29.9%
- inhibition (Plasmodium berghei [5]): -29.34%

Compound: Cl.Oc1ccccc1CNCC12CC3CC(CC(C3)C1)C2
- inhibition (Plasmodium falciparum [1]): -27.5%
- inhibition (Plasmodium falciparum [4]): -6.61%
- inhibition (Plasmodium berghei [5]): -22.21%

Compound: Cc1cc(C=C2SC(=Nc3ccccc3)N(C3CCCC3)C2=O)c(C)n1-c1ccc(Cl)cc1
- inhibition (Plasmodium falciparum [1]): 31.4%
- inhibition (Plasmodium falciparum [4]): -30.5%
- inhibition (Plasmodium berghei [5]): -28.39%

Compound: CCOC(=O)c1ccc2nc(-c3ccccc3)cc(O)c2c1
- inhibition (Plasmodium falciparum [1]): 63.6%
- IC50 (Plasmodium falciparum [2]): 237 nM
- IC50 (Plasmodium berghei [3]): 208 nM
- inhibition (Plasmodium falciparum [4]): 2.21%
- inhibition (Plasmodium berghei [5]): 27.95%
- IC50 (Plasmodium falciparum [6]): > 50000 nM

Compound: Oc1ccc(Br)cc1CN1CCN(Cc2ccc(Cl)cc2)CC1
- inhibition (Plasmodium falciparum [1]): -54.3%
- inhibition (Plasmodium falciparum [4]): -35.8%
- inhibition (Plasmodium berghei [5]): -27.93%

Compound: OC1CCCCC1C1(NC(=S)Nc2ccccc2)CCCCC1 (stereo unspecified)
- inhibition (Plasmodium falciparum [1]): 80.7%
- IC50 (Plasmodium falciparum [2]): 384 nM
- IC50 (Plasmodium berghei [3]): 16400 nM
- inhibition (Plasmodium falciparum [4]): 73.8%
- inhibition (Plasmodium berghei [5]): 14.01%
- IC50 (Plasmodium falciparum [6]): 614 nM

Compound: OC1=C2C(=Nc3ccccc3SC2c2ccc(Br)cc2)c2ccccc21 (stereo unspecified)
- inhibition (Plasmodium falciparum [1]): 62.9%
- IC50 (Plasmodium falciparum [2]): 3410 nM
- IC50 (Plasmodium berghei [3]): 2270 nM
- inhibition (Plasmodium falciparum [4]): 8.27%
- inhibition (Plasmodium berghei [5]): 56.77%
- IC50 (Plasmodium falciparum [6]): > 50000 nM

Compound: CCCc1c(CC)c(=N)c2ccccc2n1C
- inhibition (Plasmodium falciparum [1]): -39.2%
- inhibition (Plasmodium falciparum [4]): -32.4%
- inhibition (Plasmodium berghei [5]): -31.4%

Compound: Nc1ccn([C@@H]2O[C@H](CO)[C@@H](O)[C@H]2O)c(=O)n1 [CYTIDINE]
- inhibition (Plasmodium falciparum [1]): -18.8%
- inhibition (Plasmodium falciparum [4]): -25.7%
- inhibition (Plasmodium berghei [5]): -17.3%

Compound: O=C(Nc1cccc(C2=NCCN2)c1)Nc1cccc(C2=NCCN2)c1 [IMIDOCARB]
- inhibition (Plasmodium falciparum [1]): -36.7%
- inhibition (Plasmodium falciparum [4]): -30.2%
- inhibition (Plasmodium berghei [5]): -13.35%
